Results from patent US11802107B2, “Compounds and methods of use” (Signum Biosciences, Inc., priority 2017, dated 2023).
Values after ≈ are worked out from the molar mass of the structure shown.

How the values were obtained:
P. acnes (ATCC 6919) [1] = assay: Minimal inhibitory concentration (MIC) against P. acnes; type: cell-based, Propionibacterium acnes; settings: Cutibacterium acnes, ATCC6919, 72 h, P. acnes ATCC 6919, 10^6 CFU/mL, read-out: MIC
Experimental: To determine minimal inhibitory concentration (MIC), reagents were dissolved in vehicle (5% v/v) and then added to bacteria suspension. P. acnes (ATCC® 6919TM) at 10^6 CFU/mL was incubated with test materials at the concentrations of two-fold serial dilution (0.25-500 μg/mL) and incubated for 72 hours (P. acnes).

IL-4 = assay: T-cell receptor (anti-CD3/CD28)-induced IL-4 on PBMCs; type: cell-based; settings: Homo sapiens, PBMC, anti-CD3/CD28 beads, 24 hours, ELISA, read-out: TCR-PBMCs IL-4 Protein IC50
Experimental: (§1) Cryopreserved human Peripheral Blood Mononuclear cells (PBMCs) from healthy adult donors were obtained from Zen Bio, Inc (Cat No. SER-PBMC-F). Cells were cultured in 96-well plates with lymphocyte media (Cat No. LYMPH-1) and were pre-treated with test materials (≤100 μM) for 2 hours and later co-treated with test materials and anti-CD3/CD28 beads (Thermo-Fisher; Cat No. 11131D) at 1:0.4 PBMC:bead ratio for 24 hours at 37° C. and 5% CO2. After incubation, cell media supernatants were harvested and used to measure cytokine levels (IL-4, IL-5, IL-10) using ELISA kits (BD Biosciences® #555194, #555157; R&D Systems® #DY317). Results were represented as percent of inhibition relative to untreated and anti-CD3/CD28 beads-only treated cells. IC50 values were determined by non-linear regression analysis using the four-parameter logistic equation.

IL-5 = assay: T-cell receptor (anti-CD3/CD28)-induced IL-5 on PBMCs; type: cell-based; settings: Homo sapiens, PBMC, anti-CD3/CD28 beads, 24 hours, ELISA, read-out: TCR-PBMCs IL-5 Protein IC50
Experimental: as §1

IL-10 = assay: T-cell receptor (anti-CD3/CD28)-induced IL-10 on PBMCs; type: cell-based; settings: Homo sapiens, PBMC, anti-CD3/CD28 beads, 24 hours, ELISA, read-out: TCR-PBMCs IL-10 Protein IC50
Experimental: as §1

Balb/C mice = assay: Oxazolone-induced delayed-type hypersensitivity (DTH) in vivo model; settings: Mus musculus, topical to ears @ 3% w/v, 24 hours, read-out: Edema % inhibition
Experimental: Inbred male Balb/C mice were purchased from Hilltop Lab Animals (Scottdale, PA) and were used between 8 and 10 weeks of age. Mice backs were shaved and 100 μl of 3% v/v Oxazolone (Sigma Aldrich, Cat No. E0753) in acetone/olive oil (4:1) was applied to dorsal skin for sensitization. On Day 7, ears were challenged with 0.5% v/v Oxazolone and 30 minutes after challenge, test materials at 3% w/v were applied to ears (10 μl applied both to the dorsal and ventral surfaces of the mouse ear using a solvent pipette) and 24 hours later, skin thickness (edema) was measured. A 6-mm punch biopsy was obtained from each ear, snap frozen in liquid nitrogen. Ear skin biopsy punches were pulverized using FastPrep®-24 Biopulverizer (MP Biomedical, CatNo. 116004500) and Lysing Matrix A tubes (CatNo. 16910050). Protein extracts were obtained using 500 μL/tissue of cold T-PER buffer (ThermoFisher, CatNo. 78510) with Protease inhibitors (Sigma-Aldich, CatNo. 58820-20TAB). Soluble protein fractions were used to measure cytokine levels (IL-4) using ELISA kit (BD Biosciences® #555232). Results were represented as percent of inhibition relative to unsensitized and sensitized-only treated animals. Vehicle for presently disclosed compounds was 60:40 H2O:EtOH and 1:1 Acetone:EtOH for AN2718. (n=5-15 animals per treatment group).
Compound C was further analyzed at various dosages against 0.4 mg/ear of […] by the above protocol, data representing the average±S.E. of cumulative data from three independent experiments (n=12-15 mice per group) is shown below: […]

P. acnes (ATCC 6919) [2] = assay: Minimal bactericidal concentration (MBC) against P. acnes; type: cell-based, Propionibacterium acnes; settings: Cutibacterium acnes, ATCC6919; P. acnes 10^7 CFU/mL, in PBS, anaerobic conditions
CXCL8 (IL-8) = assay: P. acnes-induced IL-8 gene on human PBMCs (qPCR); type: cell-based; settings: PBMC, PBMCs + live P. acnes 1:1, test material 30 PM, 24 hours
Experimental: (§2) Cryopreserved human Peripheral Blood Mononuclear cells (PBMCs) from healthy adult donors were obtained from Zen Bio, Inc (Cat No. SER-PBMC-F). Cells were cultured in 12-well plates with lymphocyte media (Cat No. LYMPH-1) and incubated with test materials ([…]) and live P. acnes (ATCC® 6919TM) at 1:1 PBMC: P. acnes bacteria ratio for 24 hours at 37° C. and 5% CO2. After incubation, cell media supernatants were harvested and used to measure pro-inflammatory cytokine levels (IL-8, TNF-α, IL-1b, IL-17) using ELISA kits (BD Biosciences® #557966, #555212, #555244; R&D Systems® #DY317). Total RNA was extracted from cells using the RNAqueous® kit (Ambion®; Cat No. 1912) and cDNA was obtained using the High Capacity RNA-to-cDNA kit (Applied Biosystems®; Cat No. 4387406). Quantitative PCR (qPCR) was performed using the TaqMan® Fast Advanced Master Mix (Applied Biosystems®; Cat No. 4444556) and specific TaqMan®-probes human gene primers CXCL8 (IL-8), IL1B (IL-1b), TNF (TNF-α), IL17A (IL-17A) and GAPDH to calculate the relative gene fold expression change per treatment. Gene expression analysis was performed using the comparative Ct method (also known as the 2-[delta][delta]Ct) approach by comparing the Ct values of P. acnes-only treated cells with the untreated samples and normalized to GAPDH gene expression as endogenous housekeeping gene.

TNF (TNF-α) = assay: P. acnes-induced TNF-α gene on human PBMCs (qPCR); type: cell-based; settings: PBMC, PBMCs + live P. acnes 1:1, test material 30 PM, 24 hours, read-out: TNFa-Gene % inhibition
Experimental: as §2

IL1B (IL-1b) = assay: P. acnes-induced IL-1b gene on human PBMCs (qPCR); type: cell-based; settings: PBMC, PBMCs + live P. acnes 1:1, test material 30 PM, 24 hours
Experimental: as §2

IL17A (IL-17A) = assay: P. acnes-induced IL-17 gene on human PBMCs (qPCR); type: cell-based; settings: PBMC, PBMCs + live P. acnes 1:1, test material 30 PM, 24 hours
Experimental: as §2

IL-8 [3] = assay: P. acnes-induced IL-8 on human NHEKs; type: cell-based; settings: Homo sapiens; NHEK, live P. acnes 10^7 CFU, 24 hours, ELISA; read-out: P. acnes-NHEK IL-8 Protein IC50
Experimental: Normal human epidermal keratinocytes (NHEKs) from neonatal donors were obtained from Thermo-Fisher (Cat No. C-001-5C). Cells were cultured in 96-well plates for 24 hours with EpiLife media (Cat No. MEPI500CA) supplemented with keratinocytes growth supplement (Cat No. S0015). On Day 2, media was removed and replaced with supplement-depleted medium for 24 hours. On Day 3, media was removed and cells were pre-treated with test materials ([…]) for 2 hours and later co-treated with test materials and live P. acnes (ATCC® 6919TM) at 10^7 CFU for 24 hours at 37° C. and 5% CO2. After incubation, cell media supernatants were harvested and used to measure pro-inflammatory cytokine levels (IL-8) using ELISA kits (BD Biosciences® #555244). Results were represented as percent of inhibition relative to untreated and P. acnes-only treated cells. IC50 values were determined by non-linear regression analysis using the four-parameter logistic equation.

[4] = system: P. acnes (ATCC 6919) biofilms; assay: P. acnes biofilm eradication (MBEC), crystal violet; type: cell-based, Propionibacterium acnes; settings: 24 hours, ≥80% eradication vs vehicle
Experimental: P. acnes (ATCC® 6919™) was cultured as described above. Bacteria biofilms were established by seeding P. acnes cultures in 96-well plates and incubating for 24 hours without agitation. Later, biofilms were incubated with test materials for 24 hours. Remaining biofilms were washed and stained with crystal violet. […] The absorbance was measured at 595 nm in a microplate reader. […] Results from disk diffusion susceptibility testing (Kirby-Bauer Method) after 72 hours incubation were also obtained.

DEFB4B (hBD2) = assay: NHEK antimicrobial peptide gene expression, hBD2; type: cell-based, human; settings: 10 μM, 24 hours, qPCR, normalized to GAPDH
Experimental: (§3) Normal human epidermal keratinocytes (NHEKs) from neonatal donors were obtained from Thermo-Fisher (Cat No. C-001-5C). Cells were cultured in 6-well plates for 24 hours before treatments with EpiLife media (Cat No. MEPI500CA) supplemented with keratinocytes growth supplement (Cat No. 50015). On Day 2, media was removed and incubated with test materials (10 μM) for 24 hours at 37° C. and 5% CO2. On Day 3, total RNA was extracted from cells using the RNAqueous® kit (Ambion®; Cat No. 1912) and cDNA was obtained using the High Capacity RNA-to-cDNA kit (Applied Biosystems®; Cat No. 4387406). Quantitative PCR (qPCR) was performed using the TaqMan® Fast Advanced Master Mix (Applied Biosystems®; Cat No. 4444556) and specific TaqMan®-probes human gene primers DEFB4B (hBD2), DEFB103 (hBD3), HCAP18 and GAPDH to calculate the relative gene fold expression change per treatment. Gene expression analysis was performed using the comparative Ct method (also known as the 2-[delta][delta]Ct) approach by comparing the Ct values of the treated samples with the untreated samples and normalized to GAPDH gene expression as endogenous housekeeping gene. Results were represented as fold-expression/untreated cells.

DEFB103 (hBD3) = assay: NHEK antimicrobial peptide gene expression, hBD3; type: cell-based, human; settings: 10 μM, 24 hours, qPCR, normalized to GAPDH
Experimental: as §3

HCAP18 = assay: NHEK antimicrobial peptide gene expression, hCAP18; type: cell-based, human; settings: 10 μM, 24 hours, qPCR, normalized to GAPDH
Experimental: as §3

IL-8 [5] = assay: P. acnes-induced IL-8 protein on human PBMCs (ELISA); type: cell-based; settings: PBMCs + live P. acnes 1:1, test material 30 PM, 24 hours
Experimental: as §2

IL-1b = assay: P. acnes-induced IL-1b protein on human PBMCs (ELISA); type: cell-based; settings: PBMC, PBMCs + live P. acnes 1:1, test material 30 PM, 24 hours
Experimental: as §2

IL-17 = assay: P. acnes-induced IL-17 protein on human PBMCs (ELISA); type: cell-based; settings: PBMC, PBMCs + live P. acnes 1:1, test material 30 PM, 24 hours
Experimental: as §2

TNF-α = assay: P. acnes-induced TNF-α protein on human PBMCs (ELISA); type: cell-based; settings: PBMCs + live P. acnes 1:1, test material 30 PM, 24 hours
Experimental: as §2

| Compound | MIC (P. acnes (ATCC 6919) [1]) [µg/mL] | IC50 (IL-4) [µM] | IC50 (IL-5) [µM] | IC50 (IL-10) [µM] | inhibition in vivo at 3 % strength (Balb/C mice) [%] | MBC (P. acnes (ATCC 6919) [2]) [µg/mL] | inhibition at 30 pM (CXCL8 (IL-8)) [%] | inhibition at 30 pM (TNF (TNF-α)) [%] | inhibition at 30 pM (IL1B (IL-1b)) [%] | inhibition at 30 pM (IL17A (IL-17A)) [%] | other results |
| --- | --- | --- | --- | --- | --- | --- | --- | --- | --- | --- | --- |
| C/C(=C\CSCC(NC(=O)CCCCCCCCC(=O)O)C(=O)O)CCCC(C)CCCC(C)CCCC(C)C (stereo not drawn) [D] | > 250 | > 100 | > 100 | 100 | 53 | – | – | – | – | – | – |
| C/C(=C\CSCC(NC(=O)c1cc(O)c(O)c(O)c1)C(=O)O)CCCC(C)CCCC(C)CCCC(C)C (stereo not drawn) [V] | > 4 | – | – | – | 5 | > 25 | 46 | 0 | 83 | 0 | IC50 (IL-8 [3]): 0.003 µM |
| O=C(O)CCCCCCCC(=O)O [Azelaic Acid, reference compound] | 1000 (≈ 5310 µM) | – | – | – | – | > 2000 | – | – | – | – | MBEC [4]: 8000 μg/mL and (42503) μM; hBD2 gene expression (DEFB4B (hBD2)): 1.8 Fold-expression/untreated cells; hBD3 gene expression (DEFB103 (hBD3)): 0.9 Fold-expression/untreated cells; hCAP18 gene expression (HCAP18): 1.1 Fold-expression/untreated cells; IL-8 Protein % inhibition (IL-8 [5]): 43%; inhibition at 30 pM (IL-1b): 66%; inhibition at 30 pM (IL-17): 0%; TNFa-Protein % inhibition (TNF-α): 0% |
| CCN(CC(=O)O)C(=O)NC(CSC/C=C(\C)CCCC(C)CCCC(C)CCCC(C)C)C(=O)O (stereo not drawn) [I] | > 16 | – | – | – | 36 | – | 52 | 0 | 86 | 7 | – |
| CC(=O)NC(CC(=O)NC(CSC/C=C(\C)CCCC(C)CCCC(C)CCCC(C)C)C(=O)O)C(=O)O (stereo not drawn) [Q] | 125 (≈ 224 µM) | – | – | – | – | – | 14 | 0 | 59 | 72 | – |
| CSCCC(NC(C)=O)C(=O)NC(CSC/C=C(\C)CCCC(C)CCCC(C)CCCC(C)C)C(=O)O (stereo not drawn) [Compound B] | 24 (≈ 41.9 µM) | 52 | 50 | 46 | 48 | – | – | – | – | – | – |
